In patent publication US20200222474A1, “COMPOSITIONS AND METHODS FOR INCREASING PHYTOCHEMICAL BIOAVAILABLITY AND BIOACTIVITY” (North Carolina State University, priority 2017, published 2020):

Tested on: L. acidophilus NCFM
Test: RNA-seq transcriptional analysis of L. acidophilus NCFM growing on plant glycosides
Assay type: cell-based, Lactobacillus acidophilus
[1] = LBA0329 Putative cell division protein, COG D
[2] = LBA0466 Hypothetical protein, COG C
[3] = LBA0500 MSM operon repressor, COG K
[4] = LBA0545 Hypothetical protein, COG L
[5] = LBA0547 Putative site-specific recombinase, COG L
[6] = LBA0573 Putative transcriptional regulator, COG K
[7] = LBA0607 Putative transcriptional regulator, COG K
[8] = LBA0672 Putative phosphate starvation inducible protein stress related, COG J
[9] = LBA0753 Multi-drug-type permease, COG GEPR
[10] = LBA0886 Sugar kinase-putative transcriptional regulator, COG KG
[11] = LBA0887 Hypothetical protein, COG C
[12] = LBA0897 Putative Cro-like protein, COG K
[13] = LBA0910 L-lactate dehydrogenase, COG C
[14] = LBA1021 Putative transcriptional regulator, COG K
[15] = LBA1220 Pyridine mercuric reductase, COG C
[16] = LBA1392 Mucus binding protein precursor Mub, COG J
[17] = LBA1411 Fumarate reductase flavoprotein subunit, COG CS
[18] = LBA1436 Glycerol uptake facilitator protein, COG G
[19] = LBA1457 Galactose-1-epimerase, COG G
[20] = LBA1458 Galactose-1-phosphate uridylyltransferase, COG G
[21] = LBA1462 Beta-galactosidase, COG G
[22] = LBA1463 Lactose permease, COG G
[23] = LBA1465 Transcription repressor of beta-galactosidasegene, COG K
[24] = LBA1467 Beta-galactosidase large subunit (lactase), COG G
[25] = LBA1468 Beta-galactosidase small subunit, COG G
[26] = LBA1481 D-ribose-binding protein precursor, COG G
[27] = LBA1482 Ribose ABC transporter, COG G
[28] = LBA1483 Ribose ABC transporter ATP binding protein, COG G
[29] = LBA1484 D-ribose pyranase, COG G
[30] = LBA1494 Lincomycin-resistance protein, COG GEPR
[31] = LBA1607 Phosphatidylserine decarboxylase precursor, COG I
[32] = LBA1632 NAD-dependent aldehyde dehydrogenase, COG C
[33] = LBA1653 Nicotinamide mononucleotide, COG H
[34] = LBA1684 Putative PTS system IIA component, COG G
[35] = LBA1689 Maltose-6′-phosphate Oucosidase, COG G
[36] = LBA1700 Transcriptional regulator-type, COG K
[37] = LBA1701 Melibiose operon regulatory protein, COG K
[38] = LBA1705 PTS system IIBC component, COG G
[39] = LBA1708 Transcriptional antiterminator, COG K
[40] = LBA1710 Thermostable pullulanase, COG G
[41] = LBA1812 Alpha-glucosidase II, COG G
[42] = LBA1870 Maltose phosphorylase, COG G
[43] = LBA1872 Oligo-1,6-glucosidase, COG G

For `OC[C@H]1O[C@@H](O[C@H]2[C@H](O)[C@@H](O)[C@@H](O)O[C@@H]2CO)[C@H](O)[C@@H](O)[C@H]1O` [Lac], which “Log2 differential normalized TPM ratio compared to glucose” value (“Log2 differential normalized TPM ratio” for short) (LBA0016 Fructokinase, COG KG) is on record?
The value was 1.2.

What about the “Transcripts per million (rpm)” value (LBA0016 Fructokinase, COG KG) of the same molecule?
The value was 211.4 rpm.

And the “Log2 differential normalized TPM ratio” value [1]?
The value was 0.4.

And the “Transcripts per million (rpm)” value [1]?
Its value is 22.1 rpm.

And the “Log2 differential normalized TPM ratio” value [2]?
Its value is 1.5.

What about the “Transcripts per million (rpm)” value [2] of the same molecule?
Its value is 270 rpm.

And the “Log2 differential normalized TPM ratio” value [3]?
The value was 1.6.

What about the “Transcripts per million (rpm)” value [3] of the same molecule?
The value was 162 rpm.

And the “Log2 differential normalized TPM ratio” value [4]?
The value was 2.

And the “Transcripts per million (rpm)” value [4]?
The value was 306 rpm.

And the “Log2 differential normalized TPM ratio” value [5]?
The value was 1.7.

What about the “Transcripts per million (rpm)” value [5] of the same molecule?
The value was 37.9 rpm.

What about the “Log2 differential normalized TPM ratio” value [6] of the same molecule?
The value was 0.1.

And the “Transcripts per million (rpm)” value [6]?
Its value is 98.5 rpm.

What about the “Log2 differential normalized TPM ratio” value [7] of the same molecule?
The value was 0.5.

What about the “Transcripts per million (rpm)” value [7] of the same molecule?
The value was 66.9 rpm.

And the “Log2 differential normalized TPM ratio” value [8]?
Its value is 0.8.

What about the “Transcripts per million (rpm)” value [8] of the same molecule?
Its value is 2957.4 rpm.

And the “Log2 differential normalized TPM ratio” value [9]?
The value was −0.8.

What about the “Transcripts per million (rpm)” value [9] of the same molecule?
Its value is 29.5 rpm.

What about the “Log2 differential normalized TPM ratio” value [10] of the same molecule?
Its value is 0.2.

And the “Transcripts per million (rpm)” value [10]?
The value was 7.7 rpm.

What about the “Log2 differential normalized TPM ratio” value [11] of the same molecule?
Its value is 1.2.

And the “Transcripts per million (rpm)” value [11]?
The value was 133.7 rpm.

And the “Log2 differential normalized TPM ratio” value [12]?
The value was −2.4.

What about the “Transcripts per million (rpm)” value [12] of the same molecule?
The value was 0.5 rpm.

And the “Log2 differential normalized TPM ratio” value [13]?
Its value is 1.

And the “Transcripts per million (rpm)” value [13]?
The value was 257.2 rpm.

And the “Log2 differential normalized TPM ratio” value [14]?
The value was 0.3.

And the “Transcripts per million (rpm)” value [14]?
The value was 186.9 rpm.

What about the “Log2 differential normalized TPM ratio” value [15] of the same molecule?
Its value is 1.

What about the “Transcripts per million (rpm)” value [15] of the same molecule?
The value was 394.7 rpm.

What about the “Log2 differential normalized TPM ratio” value [16] of the same molecule?
Its value is −0.2.

What about the “Transcripts per million (rpm)” value [16] of the same molecule?
Its value is 88.9 rpm.

What about the “Log2 differential normalized TPM ratio” value [17] of the same molecule?
Its value is 1.1.

What about the “Transcripts per million (rpm)” value [17] of the same molecule?
The value was 4.7 rpm.

And the “Log2 differential normalized TPM ratio” value [18]?
The value was 3.8.

And the “Transcripts per million (rpm)” value [18]?
The value was 37 rpm.

And the “Log2 differential normalized TPM ratio” value [19]?
Its value is 5.6.

What about the “Transcripts per million (rpm)” value [19] of the same molecule?
Its value is 732.6 rpm.

And the “Log2 differential normalized TPM ratio” value [20]?
The value was 5.7.

What about the “Transcripts per million (rpm)” value [20] of the same molecule?
Its value is 679.9 rpm.

And the “Log2 differential normalized TPM ratio” value (LBA1459 Galactokinase, COG G)?
Its value is 4.6.

And the “Transcripts per million (rpm)” value (LBA1459 Galactokinase, COG G)?
Its value is 610.1 rpm.

And the “Log2 differential normalized TPM ratio” value [21]?
Its value is 6.

What about the “Transcripts per million (rpm)” value [21] of the same molecule?
Its value is 1123.2 rpm.

And the “Log2 differential normalized TPM ratio” value [22]?
Its value is 4.7.

And the “Transcripts per million (rpm)” value [22]?
The value was 1427.3 rpm.

And the “Log2 differential normalized TPM ratio” value (LBA1464 Transposase, COG L)?
Its value is 2.4.

What about the “Transcripts per million (rpm)” value (LBA1464 Transposase, COG L) of the same molecule?
Its value is 956 rpm.

What about the “Log2 differential normalized TPM ratio” value [23] of the same molecule?
Its value is 3.1.

And the “Transcripts per million (rpm)” value [23]?
The value was 485.8 rpm.

And the “Log2 differential normalized TPM ratio” value [24]?
The value was 8.8.

What about the “Transcripts per million (rpm)” value [24] of the same molecule?
Its value is 2333 rpm.

What about the “Log2 differential normalized TPM ratio” value [25] of the same molecule?
Its value is 6.4.

What about the “Transcripts per million (rpm)” value [25] of the same molecule?
The value was 1790.7 rpm.

What about the “Log2 differential normalized TPM ratio” value [26] of the same molecule?
The value was 0.7.

And the “Transcripts per million (rpm)” value [26]?
Its value is 8.1 rpm.

What about the “Log2 differential normalized TPM ratio” value [27] of the same molecule?
The value was 1.

And the “Transcripts per million (rpm)” value [27]?
Its value is 7.9 rpm.

And the “Log2 differential normalized TPM ratio” value [28]?
Its value is 1.

And the “Transcripts per million (rpm)” value [28]?
Its value is 6.4 rpm.

What about the “Log2 differential normalized TPM ratio” value [29] of the same molecule?
The value was 0.6.

And the “Transcripts per million (rpm)” value [29]?
The value was 6.1 rpm.

What about the “Log2 differential normalized TPM ratio” value (LBA1485 Ribokinase, COG G) of the same molecule?
The value was 0.7.

What about the “Transcripts per million (rpm)” value (LBA1485 Ribokinase, COG G) of the same molecule?
The value was 5.2 rpm.

And the “Log2 differential normalized TPM ratio” value [30]?
The value was 0.1.

What about the “Transcripts per million (rpm)” value [30] of the same molecule?
The value was 5.7 rpm.

And the “Log2 differential normalized TPM ratio” value [31]?
The value was 1.

What about the “Transcripts per million (rpm)” value [31] of the same molecule?
Its value is 41.1 rpm.

What about the “Log2 differential normalized TPM ratio” value [32] of the same molecule?
The value was 1.8.

And the “Transcripts per million (rpm)” value [32]?
Its value is 253.3 rpm.

What about the “Log2 differential normalized TPM ratio” value [33] of the same molecule?
The value was 0.6.

And the “Transcripts per million (rpm)” value [33]?
The value was 369.4 rpm.

What about the “Log2 differential normalized TPM ratio” value [34] of the same molecule?
Its value is 1.9.

And the “Transcripts per million (rpm)” value [34]?
The value was 48 rpm.

What about the “Log2 differential normalized TPM ratio” value [35] of the same molecule?
The value was 1.4.

And the “Transcripts per million (rpm)” value [35]?
Its value is 9.7 rpm.

And the “Log2 differential normalized TPM ratio” value [36]?
Its value is 0.4.

What about the “Transcripts per million (rpm)” value [36] of the same molecule?
The value was 28.8 rpm.

What about the “Log2 differential normalized TPM ratio” value [37] of the same molecule?
Its value is 0.8.

What about the “Transcripts per million (rpm)” value [37] of the same molecule?
Its value is 69.9 rpm.

And the “Log2 differential normalized TPM ratio” value [38]?
Its value is 0.8.

And the “Transcripts per million (rpm)” value [38]?
Its value is 6.1 rpm.

And the “Log2 differential normalized TPM ratio” value [39]?
The value was 1.4.

And the “Transcripts per million (rpm)” value [39]?
The value was 1.6 rpm.

What about the “Log2 differential normalized TPM ratio” value [40] of the same molecule?
Its value is 0.4.

And the “Transcripts per million (rpm)” value [40]?
The value was 9.9 rpm.

And the “Log2 differential normalized TPM ratio” value (LBA1723 Transposase, COG L)?
The value was 0.2.

What about the “Transcripts per million (rpm)” value (LBA1723 Transposase, COG L) of the same molecule?
The value was 62 rpm.

What about the “Log2 differential normalized TPM ratio” value [41] of the same molecule?
Its value is 2.

And the “Transcripts per million (rpm)” value [41]?
Its value is 68.8 rpm.

What about the “Log2 differential normalized TPM ratio” value [42] of the same molecule?
The value was −1.2.

What about the “Transcripts per million (rpm)” value [42] of the same molecule?
Its value is 46.3 rpm.

And the “Log2 differential normalized TPM ratio” value (LBA1871 Neopullulanase, COG G)?
Its value is 0.7.

What about the “Transcripts per million (rpm)” value (LBA1871 Neopullulanase, COG G) of the same molecule?
Its value is 4.5 rpm.

What about the “Log2 differential normalized TPM ratio” value [43] of the same molecule?
The value was 0.4.

What about the “Transcripts per million (rpm)” value [43] of the same molecule?
The value was 4 rpm.

What about the “Log2 differential normalized TPM ratio” value (LBA1873 Acetate kinase, COG C) of the same molecule?
Its value is 1.4.

And the “Transcripts per million (rpm)” value (LBA1873 Acetate kinase, COG C)?
Its value is 9 rpm.
